How the values were obtained:
[1] = biological target: T1, rat hepatic microsomal HMG CoA reductase (Rattus norvegicus, UniProt P51639); test: inhibition in rat hepatic microsomal HMG CoA reductase activity in vitro (Table I); assay type: biochemical; conditions: for inhibition at 0.0091 µg/mL: 0.0091 micrograms/ml; for inhibition at 0.0274 µg/mL: 0.0274 micrograms/ml; for inhibition at 0.082 µg/mL: 0.082 micrograms/ml; for inhibition at 0.24 µg/mL: 0.24 micrograms/ml; for inhibition at 0.74 µg/mL: 0.74 micrograms/ml; for inhibition at 2.22 µg/mL: 2.22 micrograms/ml; for inhibition at 0.25 µg/mL: 0.25 micrograms/ml; for inhibition at 0.2 µg/mL: 0.2 micrograms/ml; for inhibition at 20 µg/mL: 20.0 micrograms/ml; for inhibition at 6.7 µg/mL: 6.7 micrograms/ml; for inhibition at 6.66 µg/mL: 6.66 micrograms/ml
T1 construct: rat hepatic microsomal HMG CoA reductase activity in vitro; from tissue; host or cells: rat liver microsomes
T1 sequence (P51639 1-887): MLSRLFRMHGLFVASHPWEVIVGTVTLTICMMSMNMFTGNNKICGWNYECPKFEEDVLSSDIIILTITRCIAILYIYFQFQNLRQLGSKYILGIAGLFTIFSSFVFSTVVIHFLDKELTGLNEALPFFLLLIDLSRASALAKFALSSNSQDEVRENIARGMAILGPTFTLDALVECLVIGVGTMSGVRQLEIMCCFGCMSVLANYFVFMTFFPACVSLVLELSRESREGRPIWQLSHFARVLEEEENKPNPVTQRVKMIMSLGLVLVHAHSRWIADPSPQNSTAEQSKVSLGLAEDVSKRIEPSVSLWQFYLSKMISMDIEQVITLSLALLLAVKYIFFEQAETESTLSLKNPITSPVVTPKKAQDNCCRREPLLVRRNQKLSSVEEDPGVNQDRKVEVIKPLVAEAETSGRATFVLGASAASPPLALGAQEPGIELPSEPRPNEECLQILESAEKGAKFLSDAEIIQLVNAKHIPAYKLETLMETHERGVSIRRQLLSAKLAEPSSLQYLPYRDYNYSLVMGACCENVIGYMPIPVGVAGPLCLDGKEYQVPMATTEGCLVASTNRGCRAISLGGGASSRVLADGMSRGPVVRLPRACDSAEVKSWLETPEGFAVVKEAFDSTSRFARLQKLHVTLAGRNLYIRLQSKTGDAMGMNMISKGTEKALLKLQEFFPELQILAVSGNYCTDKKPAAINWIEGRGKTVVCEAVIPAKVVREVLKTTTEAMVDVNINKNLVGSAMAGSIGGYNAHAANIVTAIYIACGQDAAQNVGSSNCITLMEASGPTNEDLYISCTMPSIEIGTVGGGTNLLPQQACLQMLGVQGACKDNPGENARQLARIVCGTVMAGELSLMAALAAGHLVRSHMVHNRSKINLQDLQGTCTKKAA

cholesterol biosynthesis = test: inhibition in cholesterol biosynthesis, in vivo tests in rats, oral (Table II)
Text: In the table the doses are expressed in mg/kg animal body weight.

With CC(C)c1c(/C=C/[C@@H](O)C[C@@H](O)CC(=O)O)c(-c2ccc(F)cc2)c2c3ccccc3ccn12 (relative stereo) [OA, sodium erythro-(E)-3,5-dihydroxy-7-{3-isopropyl-1-(4-fluorophenyl)pyrrolo[2,1-a]isoquinolin-2-yl}-hept-6-enoate] the inhibition at 0.00304 µg/mL ([1]; 0.00304 micrograms/ml) was 37%, the inhibition at 0.0091 µg/mL [1] was 43% and the inhibition at 0.0274 µg/mL [1] was 51%. It also gave an inhibition at 0.082 µg/mL [1] of 63%, an inhibition at 0.24 µg/mL [1] of 74% and an inhibition at 0.74 µg/mL [1] of 87%. It also gave an inhibition at 2.22 µg/mL [1] of 95%.
In the case of CC(C)c1c(/C=C/[C@@H](O)C[C@H](O)CC(=O)O)c(-c2ccc(F)cc2)c2c3ccccc3ccn12 (relative stereo) [OB, sodium threo-(E)-3,5-dihydroxy-7-{3-isopropyl-1-(4-fluorophenyl)pyrrolo[2,1-a]isoquinolin-2-yl}-hept-6-enoate], the inhibition at 0.0274 µg/mL [1] is reported as 21%, the inhibition at 0.082 µg/mL [1] is reported as 29% and the inhibition at 0.25 µg/mL [1] is reported as 38%. The inhibition at 0.74 µg/mL [1] was 53% and the inhibition at 2.22 µg/mL [1] was 70%.
For CC(C)c1c(/C=C/C(O)CC(O)CC(=O)[O-])c(-c2ccccc2)c2c3ccccc3ccn12.[Na+] (centres unmarked) [Compound B, sodium (E)-3,5-dihydroxy-7-(3-isopropyl-1-phenylpyrrolo[2,1-a]isoquinolin-2-yl)hept-6-enoate], the inhibition at 0.025 µg/mL ([1]; 0.025 micrograms/ml) was 16%, the inhibition at 0.1 µg/mL ([1]; 0.1 micrograms/ml) was 28% and the inhibition at 0.2 µg/mL [1] was 43%. It also gave an inhibition at 0.4 µg/mL ([1]; 0.4 micrograms/ml) of 44%, an inhibition at 1.6 µg/mL ([1]; 1.6 micrograms/ml) of 72% and an inhibition at 2 µg/mL ([1]; 2.0 micrograms/ml) of 81%. For the same compound, the inhibition at 6.4 µg/mL ([1]; 6.4 micrograms/ml) was 91%, the inhibition at 20 µg/mL [1] was 98% and the “% Inhibition in cholesterol biosynthesis” value (cholesterol biosynthesis; oral dose 1.11 mg/kg) was 67%. For the same compound, the “% Inhibition in cholesterol biosynthesis” value (cholesterol biosynthesis; oral dose 3.33 mg/kg) was 77% and the “% Inhibition in cholesterol biosynthesis” value (cholesterol biosynthesis; oral dose 10.0 mg/kg) was 91%.
CC(C)c1c(/C=C/C(=O)CC(O)CC(=O)O)c(-c2ccccc2)c2c3ccccc3ccn12 (centres unmarked) [Compound E, (E)-3-hydroxy-7-(3-isopropyl-1-phenylpyrrolo[2,1-a]isoquinolin-2-yl)-5-oxohept-6-enoic acid] was tested, and the inhibition at 2.2 µg/mL ([1]; 2.2 micrograms/ml) was 50%, the inhibition at 6.7 µg/mL [1] was 71% and the inhibition at 20 µg/mL [1] was 90%.
Work on CC(C)c1c(CCC2CC(O)CC(=O)O2)c(-c2ccccc2)c2c3ccccc3ccn12 (centres unmarked) [Compound G, 4-hydroxy-6-[2-(3-isopropyl-1-phenylpyrrolo[2,1-a]isoquinolin-2-yl)ethyl]-3,4,5,6-tetrahydro-2H-pyran-2-one] yielded an inhibition at 6.7 µg/mL [1] of 38% and an inhibition at 20 µg/mL [1] of 44%.
Compound CCOC(=O)CC(O)CC(O)/C=C/c1c(-c2ccccc2)c2c3ccccc3ccn2c1C (centres unmarked) [Compound H, ethyl (E)-3,5-dihydroxy-7-(3-methyl-1-phenylpyrrolo[2,1-a]-isoquinolin-2-yl)hept-6-enoate] has an inhibition at 0.24 µg/mL [1] of 26%, an inhibition at 0.74 µg/mL [1] of 22% and an inhibition at 2.22 µg/mL [1] of 33%. The inhibition at 6.66 µg/mL [1] was 54% and the inhibition at 20 µg/mL [1] was 70%.
Work on Cc1c(/C=C/C(O)CC(O)CC(=O)O)c(-c2ccccc2)c2c3ccccc3ccn12 (centres unmarked) [Compound I, sodium (E)-3,5-dihydroxy-7-(3-methyl-1-phenylpyrrolo[2,1-a]isoquinolin-2-yl)hept-6-enoate] yielded an inhibition at 0.082 µg/mL [1] of 44%, an inhibition at 0.25 µg/mL [1] of 39% and an inhibition at 0.74 µg/mL [1] of 35%. The inhibition at 2.22 µg/mL [1] was 46%, the inhibition at 6.66 µg/mL [1] was 68% and the inhibition at 20 µg/mL [1] was 85%.
CCc1c(/C=C/C(O)CC(O)CC(=O)O)c(-c2ccc(F)cc2)c2c3ccccc3ccn12 (centres unmarked) [Compound K, sodium (E)-3,5-dihydroxy-7-{3-ethyl-1-(4-fluorophenyl)pyrrolo-[2,1-a]isoquinolin-2-yl}hept-6-enoate] gave an inhibition at 0.0274 µg/mL [1] of 27%, an inhibition at 0.082 µg/mL [1] of 33% and an inhibition at 0.24 µg/mL [1] of 46%. It also gave an inhibition at 0.74 µg/mL [1] of 68%, an inhibition at 2.22 µg/mL [1] of 86% and an inhibition at 6.66 µg/mL [1] of 95%.
Work on CC(C)c1c(/C=C/C(O)CC(O)CC(=O)O)c(-c2ccc(F)cc2)n2ccc3ccccc3c12 (centres unmarked) [Compound M, sodium (E)-3,5-dihydroxy-7-{1-isopropyl-3-(4-fluorophenyl)pyrrolo[2,1-a]isoquinolin-2-yl}hept-6-enoate] yielded an inhibition at 0.0025 µg/mL ([1]; 0.0025 micrograms/ml) of 33%, an inhibition at 0.0074 µg/mL ([1]; 0.0074 micrograms/ml) of 46% and an inhibition at 0.022 µg/mL ([1]; 0.022 micrograms/ml) of 63%. For the same compound, the inhibition at 0.066 µg/mL ([1]; 0.066 micrograms/ml) was 69%, the inhibition at 0.2 µg/mL [1] was 74% and the inhibition at 0.22 µg/mL ([1]; 0.22 micrograms/ml) was 65%. The inhibition at 0.74 µg/mL [1] was 78%, the inhibition at 2.22 µg/mL [1] was 90% and the inhibition at 6.66 µg/mL [1] was 96%. The inhibition at 20 µg/mL [1] was 98%.
In the case of CC(C)c1c(/C=C/C(=O)CC(O)CC(=O)O)c(-c2ccc(F)cc2)c2c3ccccc3ccn12 (centres unmarked) [Compound Q, sodium (E)-3-hydroxy-7-{3-isopropyl-1-(4-fluorophenyl)pyrrolo-[2,1-a]isoquinolin-2-yl}-5-oxohept-6-enoate], the inhibition at 0.082 µg/mL [1] is reported as 8%, the inhibition at 0.24 µg/mL [1] is reported as 22% and the inhibition at 0.74 µg/mL [1] is reported as 45%. For the same compound, the inhibition at 2.22 µg/mL [1] was 70% and the inhibition at 6.66 µg/mL [1] was 89%.
CCOC(=O)CC(O)CC(O)/C=C/c1c(-c2ccc(F)cc2)c2c3ccccc3ccn2c1C(C)C (centres unmarked) [N, ethyl (E)-3,5-dihydroxy-7-{3-isopropyl-1-(4-fluorophenyl)pyrrolo[2,1-a]isoquinolin-2-yl}hept-6-enoate] gave an inhibition at 0.0091 µg/mL [1] of 44%, an inhibition at 0.0274 µg/mL [1] of 55% and an inhibition at 0.082 µg/mL [1] of 61%. It also gave an inhibition at 0.25 µg/mL [1] of 74%, an inhibition at 0.74 µg/mL [1] of 87% and an inhibition at 2.22 µg/mL [1] of 95%.
CC(C)c1c(/C=C/C(O)CC(O)CC(=O)O)c(-c2ccc(F)cc2)c2c3ccccc3ccn12 (centres unmarked) [O, sodium (E)-3,5-dihydroxy-7-{3-isopropyl-1-(4-fluorophenyl)pyrrolo[2,1-a]isoquinolin-2-yl}-hept-6-enoate] was tested, and the inhibition at 0.24 µg/mL [1] was 69%, the inhibition at 0.74 µg/mL [1] was 81% and the inhibition at 2.22 µg/mL [1] was 92%. For the same compound, the inhibition at 6.66 µg/mL [1] was 97% and the inhibition at 20 µg/mL [1] was 99%.

Reference: US4933350A, “Pyrroloisoquinolines useful as hypercholesterolemic and hyperlipoprotienimic agents” (May & Baker Limited, priority 1987, dated 1990)
